Results: article PMC6214630 (Biochimica et biophysica acta. General subjects, 2018)

Biological target: THB2 (Chlamydomonas reinhardtii, UniProt R9RZJ6)
Experiment: UV-visible absorption
Assay type: binding
Conditions: Fe(III) heme

Row | SMILES | UV-visible absorption | UV-visible absorption (excess imidazole)
1 | CC(=O)O [acetate] | this protein, like THB1 and a small number of TrHbs | –
2 | c1c[nH]cn1 [imidazole] | – | addition of excess imidazole to our preparations of THB2 nearly eliminates the discrepancies
